Experimental data from US9717727B2, “Methods of treating and preventing leukemia and other cancers of the blood and bone” (The Trustees of Columbia University in the City of New York, priority 2011, dated 2017).

Columns and labels:
serum serotonin [1] = assay: Serum serotonin levels by ELISA, EL4 study (Example 9); assay type: in vivo, mice; conditions: leukemic and non-leukemic groups; LP-533401 25 or 200 mg/kg/day oral
Protocol: Mice were treated orally with LP-533401 (25 or 200 mg per kg of body weight per day) or vehicle. Treatments started 15 days before malignant cell injections in all sets of experiments, and continued for the indicated periods of time. LP-533401 was dissolved in polyethylene glycol (PEG) and 5% dextrose or 2.5% glucose (Sigma), and given daily by oral gavage. Mice treated with vehicle were administered, in the same way as LP533401, a solution of PEG and 5% dextrose or 2.5% glucose, daily, by oral gavage. For measurements of serum serotonin levels, mice were briefly exposed to Isoflurane (Baxter) for 30 seconds and blood was collected by cardiac puncture. Similar volumes of blood were collected from different animals for consistency in the clotting times. Serum collection from all mice was done between 9:00 am and 12:00 pm. Blood was allowed to clot on ice for 5 minutes before centrifugation at maximum speed at 4° C. for 10 minutes. The serum supernatant was removed, snap frozen and stored at −80° C. for further analysis. Serum serotonin levels were quantified by ELISA (Serotonin kit, Fitzgerald) according to manufacturer's instructions.

EL4 cells [2] = assay: EL4 leukemia mouse model, all mice sacrificed at day 15 (Example 10); assay type: in vivo
Protocol: Mice were sacrificed at pre-determined time points as specified before or upon signs of illness. Each animal was weighed before blood was sampled, and visually examined for tumor development. Spleens were isolated and weighed. Spleens and tissue samples from liver were fixed in 10% neutral formalin solution for 48 hours. Osseous samples (thoracic spine, sternum, pelvis, and stifle joint) were decalcified in Decalcifier System I (Leica Microsystems, Inc.) for 48 h after fixation. All tissues were processed by routine methods and embedded in paraffin Sections of 4 or 5 μm were stained with hematoxylin and eosin (H&E) according to standard procedures. Luciferase intensity was measured by plating 4.5 million bone marrow cells into 6-well plates. Luciferin was added at a final concentration of 150 μg/mL and luciferase activity was measured at a luminometer. Mice were treated orally with LP-533401 (25 or 200 mg per kg of body weight per day) or vehicle. Treatments started 15 days before malignant cell injections in all sets of experiments, and continued for the indicated periods of time. LP-533401 was dissolved in polyethylene glycol (PEG) and 5% dextrose or 2.5% glucose (Sigma), and given daily by oral gavage. Mice treated with vehicle were administered, in the same way as LP533401, a solution of PEG and 5% dextrose or 2.5% glucose, daily, by oral gavage. The same mice and techniques used in Example 9 were used in this Example, except all of the mice were sacrificed at day 15 following EL4 cell injection

serum serotonin [3] = assay: Serum serotonin levels, WEHI/3B study (Example 12); assay type: in vivo; conditions: non-leukemic mice treated with LP-533401 (NL-LP); BALB/cJ
Protocol: For measurements of serum serotonin levels, mice were briefly exposed to Isoflurane (Baxter) for 30 seconds and blood was collected by cardiac puncture. Similar volumes of blood were collected from different animals for consistency in the clotting times. Serum collection from all mice was done between 9:00 am and 12:00 pm. Blood was allowed to clot on ice for 5 minutes before centrifugation at maximum speed at 4° C. for 10 minutes. The serum supernatant was removed, snap frozen and stored at −80° C. for further analysis. Serum serotonin levels were quantified by ELISA (Serotonin kit, Fitzgerald) according to manufacturer's instructions. […]
All mice were sacrificed after 2 weeks for the following assessments: • Serum serotonin levels as measured in Example 9; • Body weight as described in Example 2 • Spleen weight as described in Example 2; • Histological analysis of the femur, spleen and liver as described in Example 2; • Trabecular Bone Volume (Bv/TV) as described in Example 3; • and • Gene Expression analysis by PCR as described in Example 3. […]

EL4 cells [4] = assay: Injection of EL4 cells pre-treated with LP-533401 or serotonin into syngeneic mice (Example 13); assay type: in vivo; conditions: cells treated before injection; LP-533401 0.1 to 1-fold serum concentration, serotonin 25 to 100 μM
Protocol: EL4 cells and WEH-3B cells, as described in Example 2, were treated with either LP-533401 or serotonin LP-533401 treatments were performed at 0.1 to 1-fold the amount equivalent to the LP-533401 serum concentration in mice treated with this compound. Serotonin was given at concentrations ranging from 25 to 100 μM, doses at which it affects the proliferation of cells expressing serotonin receptors (Kode et al. (2012); Yadav et al. (2008) Serafeim et al. (2003)).
EL4 cells treated with LP-533401 or serotonin were then injected into syngeneic mice as described in Example 2 to monitor leukemia engraftment, as commonly described for evaluating potential direct effects of compounds on leukemia cells (Moellering et al. (2009)).

Tph2 = molecular target: T1, Tph2 (Homo sapiens, UniProt Q8IWU9); conditions: in vitro; cited from earlier work
T1 sequence (Q8IWU9 1-490): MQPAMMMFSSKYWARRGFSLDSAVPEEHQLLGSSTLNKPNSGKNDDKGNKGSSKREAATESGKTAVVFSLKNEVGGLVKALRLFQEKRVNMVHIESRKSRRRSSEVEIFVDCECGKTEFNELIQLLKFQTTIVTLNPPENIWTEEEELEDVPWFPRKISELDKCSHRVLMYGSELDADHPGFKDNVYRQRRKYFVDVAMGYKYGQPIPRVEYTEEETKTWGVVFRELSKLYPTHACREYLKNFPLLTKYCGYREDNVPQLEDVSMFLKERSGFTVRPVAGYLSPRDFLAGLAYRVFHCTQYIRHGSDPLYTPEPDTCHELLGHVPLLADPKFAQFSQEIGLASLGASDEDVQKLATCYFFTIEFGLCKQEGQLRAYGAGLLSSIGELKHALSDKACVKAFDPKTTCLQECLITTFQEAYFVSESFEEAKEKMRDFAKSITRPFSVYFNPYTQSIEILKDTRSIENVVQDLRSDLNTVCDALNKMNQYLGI

[5] = in vivo; cited from earlier work

In the case of `Nc1nc(OC(c2ccc(-c3cccc(F)c3)cc2)C(F)(F)F)cc(-c2ccc(C[C@H](N)C(=O)O)cc2)n1` (some centres unmarked) [LP-533401], the “decrease in serum serotonin levels compared to vehicle-treated animals” value (serum serotonin [1]) is reported as 30%, the “leukemic infiltration in the marrow (histology)” value (EL4 cells [2]; day 15) is reported as “reduced leukemic infiltration” and the “leukemic mice with 20 to 40% blasts in the bone marrow” value (EL4 cells [2]; day 15) is reported as 40%. For the same molecule, the “leukemic mice with increased megakaryocyte number” value (EL4 cells [2]; day 15) was 20%, the “leukemic mice with less than 20% of blasts in the bone marrow” value (EL4 cells [2]; day 15) was 40% and the “leukemic mice with more than 80% blasts in the bone marrow” value (EL4 cells [2]; day 15) was 20%. The “leukemia-induced changes in WBCs, monocytes, neutrophils and lymphocytes” value (EL4 cells [2]; day 15, leukemic mice) was “all prevented”, the liver leukemic involvement (EL4 cells [2]; day 15, leukemic mice) was “normal or only small size focal infiltrates” and the myeloid hyperplasia (EL4 cells [2]; day 15, leukemic mice) was “Mild myeloid hyperplasia”. For the same molecule, the “prevalence of immature lymphoblastic cells in the blood compared to healthy controls” value (EL4 cells [2]; day 15, leukemic mice) was “did not show an increase”, the EL4 tumor burden (EL4 cells [2]; day 15, whole body and bone marrow) was “decreased in whole body and in the bone marrow” and the “leukemia-caused decrease in bone volume, osteoblast numbers and bone formation rate” value (EL4 cells [2]; day 15 after EL4 injection) was “ameliorated”. For the same molecule, the osteoclast numbers (EL4 cells [2]; day 15 after EL4 injection) was “Neither injection with EL4 cells nor treatment with LP-533401 affected osteoclast numbers”, the “decrease in serum serotonin levels compared to wild-type mice” value (serum serotonin [3]) was 50% and the “leukemia outcome (burden and lethality) after injection of pre-treated EL4 cells” value (EL4 cells [4]) was “neither of the two treatments altered leukemia outcome”. The “inhibition of Tph2 relative to Tph1” value (Tph2) was “inhibits Tph2 as effectively as Tph1” and the “crossing of the blood-brain barrier” value [5] was “did not cross the blood-brain barrier”.
